Results reported in US4898943A, “Tricyclic triazolopyrimidine derivatives” (Daiichi Seiyaku Co., Ltd., priority 1987, dated 1990).

Key:
PCA reaction = experiment: PCA test (48-hour passive cutaneous anaphylaxis), oral administration; assay type: in vivo; details: Rattus norvegicus, 10 mg/kg orally, 30 minutes before antigen challenge, male Sprague-Dawley rats
Description: Each of Sprague-Dawley female rats weighing 170 to 250 g (CRJ-CD(SD), Charles River Japan Inc.) was intramuscularly administered with 5 mg/kg-body weight of egg albumin dissolved in saline, and then 1 ml of a suspension of Bordetella pertussis vaccine (2×10^10 organism) in saline was administered intraperitoneally to the rat. On day 10, 3,000 larvae animal of Nippostrongylus brasiliensis were subcutaneously administered to the rats. On day 24, blood was drawn from the rats to obtain an antiserum.
The antiserum was diluted with saline so as to provide a blue spot having a diameter of about 10 mm in the following control group.
Male sprague-Dawley rats weighing about 180 g (5 rats per group) were sensitized by injecting 0.05 ml of the diluted antiserum into the shaved dorsal skin. Fourty-eight hours later, 1 ml of saline containing 0.5% Evans blue and 5 mg of egg albumin was administered to each of the rats via a tail vein. After 30 minutes, the rats were sacrificed by decapitation. The dorsal skin was removed, and the amount of the dye in the blue spot area was measured in accordance with the method of Katayama et al., Microbiol. Immunol., Vol. 22, 89-101 (1978).
Ten milligrams of the test compound was suspended in 5 ml of a 0.5% CMC aqueous solution, and the suspension was orally administered to each of the rats in an amount of 10 mg/kg 30 minutes before the antigen challenge. On the other hand, a control group received only a 0.5% CMC solution.
The inhibitory activity on the PCA reaction in the treated group was calculated by the following equation: [formula] wherein V represents a mean value of the dye amount in the blue spot area in the control group; and W represents a mean value of the dye amount in the blue spot area in the treated group.

Acute toxicity test = details: mouse, in vivo, po; p.o. in mice

| Structure (SMILES) | inhibition at 10 mg/kg (PCA reaction) [%] | LD50 (Acute toxicity test) [mg/kg] |
| --- | --- | --- |
| O=c1c2[nH]nnc2nc2sc(CCC3CCCCC3)nn12 [Example 1, 6-(2-Cyclohexylethyl)-[1,3,4]thiadiazolo-[3,2-a][1,2,3]triazolo[4,5-d]pyrimidin-9-(1H)-one] | 81 | > 4000 |
| O=c1c2[nH]nnc2nc2sc(CCC3CCCC3)nn12 [Example 2] | 62 | 2000 to 4000 |
| O=c1c2[nH]nnc2nc2sc(CCCC3CCCC3)nn12 [Example 3] | 91 | > 4000 |
| O=c1c2[nH]nnc2nc2sc(CC3CCCCC3)nn12 [Example 4] | 77 | – |
| O=c1c2[nH]nnc2nc2sc(CCCC3CCCCC3)nn12 [Example 5] | – | > 4000 |
| O=c1c2[nH]nnc2nc2sc(CCC3CCCCCC3)nn12 [Example 9] | 88 | > 4000 |
